According to US20150320700A1, “Geranium oil and constituents thereof for treatment of neurodegenerative diseases” (The State of Israel, Ministry of Agriculture & Ru ral …, priority 2012, published 2015):
Counter-ions that a name gives are not always drawn.

Assays:
[1] = molecular target: T1, human erythrocytes' acetyl cholinesterase (Homo sapiens, UniProt P22303); assay: acetyl cholinesterase fluorescent activity assay; type: biochemical; conditions: human erythrocytes' acetyl cholinesterase 25 mU/mL, FIGS. 2-4
T1 construct: from tissue; host or cells: human erythrocytes
Method: In this Example, Human erythrocytes acetyl cholinesterase (AChE) was incubated with different concentrations of geranium oil or each of its constituents.
(§1) In the results shown in FIG. 2, the different constituents were incubated with human erythrocytes' acetyl cholinesterase (25 mU/mL). The activity of acetyl cholinesterase was determined using a commercially available kit (acetyl cholinesterase fluorescent activity assay kit, Arbor assays).
Thus, inventors have tested the effect of both enantiomers on the enzymatic activity. […] The different enantiomers of citronellol were incubated with human erythrocytes' acetyl cholinesterase (25 mU/mL). The enzymatic activity was determined using a commercially available kit (acetyl cholinesterase fluorescent activity assay kit, Arbor assays).
as §1, with “In” for “In the results shown in”, “4,” for “2, the”, “constituents of geranium oil (Geraniol, Citronellol (+) and Citronellol formate)” for “constituents”

[2] = tested on: primary microglial cells; assay: peroxyl radical-induced oxidation of DCFH (ROS) in primary microglial cells; type: cell-based; conditions: microglial cells incubated 1 h with compound; ABAP 0.6 mM; FIG. 1
Method: Microglial cells were incubated for one h with (S)(−)citronellol (FIG. 1A) and (R)(+)citronellol (FIG. 1B). Primary cultures of microglial cells has been prepared according to Elmann et al., Journal of Functional Foods 2 (2010), pp. 18. As in Elmann et al. BMC Complementary and Alternative Medicine 2011, 11:98, the cultures of microglial cells were then preloaded with the non-fluorescent cell permeating compound, 2′7′-dichlorofluorescein diacetate (DCF-DA) for 30 min and washed with PBS, after which, 2,2′-Azobis(amidinopropane) (ABAP) (0.6 mM) was added and ROS levels were measured at the indicated time points. Each point on the graph represents mean±SEM of 2 experiments (n=8).

T1 sequence (P22303 32-617 isoform P22303-2 limits assumed): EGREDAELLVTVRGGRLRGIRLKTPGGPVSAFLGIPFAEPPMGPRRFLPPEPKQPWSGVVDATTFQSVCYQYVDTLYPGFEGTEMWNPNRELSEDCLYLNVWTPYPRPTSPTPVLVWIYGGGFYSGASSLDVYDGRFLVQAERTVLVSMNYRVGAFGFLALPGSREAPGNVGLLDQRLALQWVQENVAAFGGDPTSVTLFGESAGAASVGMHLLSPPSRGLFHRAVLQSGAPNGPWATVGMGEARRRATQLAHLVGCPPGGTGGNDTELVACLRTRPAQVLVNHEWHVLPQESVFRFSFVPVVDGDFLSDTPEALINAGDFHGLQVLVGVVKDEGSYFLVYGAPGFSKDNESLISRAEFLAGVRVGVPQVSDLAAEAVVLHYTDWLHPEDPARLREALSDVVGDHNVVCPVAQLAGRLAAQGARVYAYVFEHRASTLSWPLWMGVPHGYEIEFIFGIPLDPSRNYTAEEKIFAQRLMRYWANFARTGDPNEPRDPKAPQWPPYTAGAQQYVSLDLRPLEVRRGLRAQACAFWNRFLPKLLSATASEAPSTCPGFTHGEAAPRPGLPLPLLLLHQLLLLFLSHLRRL

| Structure (SMILES) | enzymatic activity of acetyl cholinesterase [1] | peroxyl radical-induced oxidation of DCFH (ROS levels) [2] | enzymatic activity of acetyl cholinesterase ([1]; listed as Citronellol (+)) | enzymatic activity of acetyl cholinesterase ([1]; listed as (S)(−)citronellol) |
| --- | --- | --- | --- | --- |
| CC(C)=CCCC(C)CCOC=O (centres unmarked) [citronellol formate, reference compound] | none of the constituents geraniol, Citronellol (+) and citronellol formate could inhibit AChE activity |  |  |  |
| CC(C)=CCC/C(C)=C/CO [geraniol, reference compound] | none of the constituents geraniol, Citronellol (+) and citronellol formate could inhibit AChE activity |  |  |  |
| CC(C)=CCC[C@@H](C)CCO [(R)(+)citronellol, reference compound] | not (R)(+)citronellol could inhibit the enzymatic activity | inhibit the peroxyl radical-induced oxidation of DCFH | none of the constituents geraniol, Citronellol (+) and citronellol formate could inhibit AChE activity |  |
| CC(C)[C@H]1CC[C@@H](C)CC1=O [isomenthone] | inhibited the enzymatic activity |  |  |  |
| CC(C)[C@@H]1CC[C@@H](C)CC1=O [menthone] | inhibited the enzymatic activity |  |  |  |
| C=CC(C)(O)CCC=C(C)C (centres unmarked) [linalool] | inhibited the enzymatic activity |  |  |  |
| CC(C)=CCC[C@H](C)CCO [(S)(−)-citronellol] | inhibited the enzymatic activity | inhibit the peroxyl radical-induced oxidation of DCFH |  | could inhibit the enzymatic activity |
